{"source": "patent US6562783B2", "about": "“Phosphinylmethyl and phosphorylmethyl succinic and glutauric acid analogs as β-secretase inhibitors” (Neurologic, Inc., priority 2001, dated 2003)", "system": "sAPP secretion", "assay": "Enhancement of sAPP secretion (immunoblot with 6E10 antibody, densitometry)", "type": "cell-based, Human", "settings": "compound at 10 μM; FIG. 4", "procedure": "Determination of the enhancement of sAPP secretion promoted by LQ-β series of compounds:\nHuman fibroblasts were obtained from the Coriell Cell Repositories (Camden, N.J.). Four AD cell lines (AG06848, AG04401, AG07377, AG06263) and four age-matched control cell lines (AG07141, AG06241, AG08044, AG04560) were grown to confluence in T75 cell culture flasks. Additional information about these cell lines can be found in the Catalog of Cell Lines from the National Institute of Aging. (National Institute of Aging, Catalog of Cell Lines (1994)). The culture medium was DMEM supplemented with 10% serum (FBS, Gibco). PC12 cells were obtained from the American Cell Culture Collection and grown to confluence in T75 flasks containing DMEM supplemented with 5% FBS (Gibco), 10% horse serum (Biofluids) and 1% of a mixture of penicillin (5,000 units/ml in G sodium) and streptomycin (5,000 μg/ml).\nCells in T-75 were seeded into 100 mm cell culture plates and allowed to grow for 2 days. […]\nConventional immunoblotting techniques were employed. […] Horseradish peroxidase bound signal was detected using an enhanced chemiluminescence followed by exposure to Hyperfilm ECL (Amersham). The band intensities were quantified by densitometric analyses using a BioRad GS-710 Scanning Densitometer and Multianalyst software (BioRad).", "data": [{"compound": "O=C(O)CC(CP(=O)(O)O)C(=O)N1CCN(C(=O)OCCOc2ccccc2)CC1", "note": "(stereo not shown) [LQ-∃1, 4-(2-Carboxymethyl-3-phosphono-propionyl)-piperazine-1-carboxylic acid 2-phenoxy-ethyl ester]", "values": [{"measurement": "effect on sAPP secretion compared to vehicle (DMSO) alone", "value": "marked effect of enhancing secretion"}]}]}
